Experimental data: patent publication EP4782008A1 (priority 2023, dated 2025)

Columns and labels:
[1] = background statement; cited from earlier work
[2] = background statement; cited from earlier work; remark: listed apart in the source
[3] = background statement; cited from earlier work; remark: listed apart in the source
hERG = hERG (Homo sapiens, UniProt Q12809); conditions: background statement; cited from earlier work
[4] = Pharmacokinetics following single oral administration; format: in vivo, healthy Chinese subjects; conditions: for AUC(0-inf) / peak plasma drug concentration: empty stomach
Protocol: Trial design: single-center, randomized, double-blind, placebo-controlled, dose-escalation, single administration. Number of subjects: Planned enrollment: 52 subjects, Final analysis: 51 subjects.
• Specifications: 0.5 mg/tablet, 1 mg/tablet, 2 mg/tablet, prepared according to the method of Example 1; • Dose: 0.5 mg, 1 mg, 2 mg, 4 mg, 8 mg, 12 mg. • Administration method: Single-dose, taken with an appropriate amount of water (240 mL).
Evaluation indicators of pharmacokinetic parameters: Time to peak (Tmax), peak concentration (Cmax), area under the plasma concentration time curve from 0 to t (AUC0-t), area under the plasma concentration time curve from 0 to infinity (AUC0-∞), elimination rate constant (λz), half-life period (t1/2), total clearance/bioavailability (CL/F), apparent volume of distribution/bioavailability (Vd/F).
Pharmacokinetic analysis: Pharmacokinetic parameters were calculated using the non-compartmental analysis (NCA) and Phoenix WinNonlin 7.0 data analysis software. Descriptive statistical analysis was performed on pharmacokinetic parameters, providing the number of subjects, arithmetic mean, standard deviation, minimum, median, maximum, and coefficient of variation (CV). Tmax was expressed as median (minimum - maximum). AUC and Cmax belong to a log-normal distribution. The geometric mean was also provided. The relationship between administered dose and drug plasma exposure was evaluated by plotting scatter plots of log-transformed pharmacokinetic parameters (AUC and Cmax) in relation to log dose. Furthermore, the Power model method was used to further explore the linear analysis of administered dose and drug plasma exposure.
A single dose of the tablets of the compound of formula (I) was administered orally to healthy volunteers on empty stomach. […] When the administered doses were 1 mg, 2 mg, 4 mg, 8 mg, and 12 mg, the peak plasma drug concentrations were 1.19 ng/mL, 2.43 ng/mL, 8.61 ng/mL, 16.4 ng/mL, and 23.5 ng/mL, respectively, and the AUC0-∞ were 14.7 h·ng/mL, 29.8 h·ng/mL, 69.4 h·ng/mL, 135 h·ng/mL, and 220 h·ng/mL, respectively. […] Within the dose range of 1 mg-12 mg, Cmax and AUC0-∞ increased with increasing administered dose, and the increase ratio in AUC0-∞ was basically consistent with the dose increase ratio. The inter-individual variability of plasma drug exposure is around 30%.

hERG, sequence (Q12809 whole entry): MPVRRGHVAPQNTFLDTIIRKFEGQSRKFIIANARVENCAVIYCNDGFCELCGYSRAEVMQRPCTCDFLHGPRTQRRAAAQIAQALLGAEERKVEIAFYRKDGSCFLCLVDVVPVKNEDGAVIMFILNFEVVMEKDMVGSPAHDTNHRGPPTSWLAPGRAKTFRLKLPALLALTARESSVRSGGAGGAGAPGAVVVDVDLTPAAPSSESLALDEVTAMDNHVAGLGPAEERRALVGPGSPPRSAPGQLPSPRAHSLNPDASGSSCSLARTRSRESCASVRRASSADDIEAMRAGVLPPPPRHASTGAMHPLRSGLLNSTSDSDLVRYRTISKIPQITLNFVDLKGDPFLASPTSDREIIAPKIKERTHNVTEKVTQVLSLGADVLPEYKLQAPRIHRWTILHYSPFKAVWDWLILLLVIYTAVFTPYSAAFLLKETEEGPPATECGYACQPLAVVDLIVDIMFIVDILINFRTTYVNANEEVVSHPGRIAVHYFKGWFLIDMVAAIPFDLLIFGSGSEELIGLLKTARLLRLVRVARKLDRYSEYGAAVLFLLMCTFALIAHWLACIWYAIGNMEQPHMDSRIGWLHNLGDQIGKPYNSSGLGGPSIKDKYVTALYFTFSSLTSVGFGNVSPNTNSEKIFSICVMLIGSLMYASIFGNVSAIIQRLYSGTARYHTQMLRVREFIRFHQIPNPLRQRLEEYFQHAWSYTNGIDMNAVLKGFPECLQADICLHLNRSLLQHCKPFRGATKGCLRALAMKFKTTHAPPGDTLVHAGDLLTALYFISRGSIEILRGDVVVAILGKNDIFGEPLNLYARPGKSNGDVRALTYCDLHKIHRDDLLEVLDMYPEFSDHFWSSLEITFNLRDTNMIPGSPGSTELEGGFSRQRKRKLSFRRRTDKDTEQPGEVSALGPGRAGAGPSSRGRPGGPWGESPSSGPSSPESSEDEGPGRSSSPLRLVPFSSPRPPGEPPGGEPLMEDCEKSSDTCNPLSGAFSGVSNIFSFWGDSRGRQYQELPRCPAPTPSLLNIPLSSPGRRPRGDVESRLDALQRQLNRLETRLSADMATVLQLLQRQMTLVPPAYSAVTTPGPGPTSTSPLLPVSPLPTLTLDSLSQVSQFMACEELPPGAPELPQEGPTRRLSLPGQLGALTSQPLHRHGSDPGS

In the case of `COc1cc2c(cc1OC)C(=O)C(CC1(F)CCN(Cc3ccccc3F)CC1)C2` (stereo not shown) [compound of formula (I), 2-(4-fluoro-(1-(2-fluorobenzyl))piperidin-4-yl-methyl)-5,6-dimethoxy-2,3-dihydro-1-indanone], the genetic toxicity [1] is given as “no”, the “drug concentration in brain tissue relative to the plasma drug concentration” value [2] is given as 4.4 times and the oral bioavailability [3] is given as “high”. The hERG toxicity (hERG) was “no”, the AUC(0-inf) ([4]; human, plasma, single oral dose 1 mg) was 14.7 ng·h/mL and the AUC(0-inf) ([4]; human, plasma, single oral dose 2 mg) was 29.8 ng·h/mL. It also gave an AUC(0-inf) ([4]; human, plasma, single oral dose 4 mg) of 69.4 ng·h/mL, an AUC(0-inf) ([4]; human, plasma, single oral dose 8 mg) of 135 ng·h/mL and an AUC(0-inf) ([4]; human, plasma, single oral dose 12 mg) of 220 ng·h/mL. For the same molecule, the half-life ([4]; human, plasma, single oral dose of tablets on empty stomach, range over dose groups, read-out: mean plasma drug elimination half-life period) was 852 to 1930 min, the “inter-individual variability of plasma drug exposure” value ([4]; single oral dose) was “around 30%” and the “peak plasma drug concentration” value ([4]; single oral dose 1 mg) was 1.19 ng/mL. For the same molecule, the “peak plasma drug concentration” value ([4]; single oral dose 2 mg) was 2.43 ng/mL, the “peak plasma drug concentration” value ([4]; single oral dose 4 mg) was 8.61 ng/mL and the “peak plasma drug concentration” value ([4]; single oral dose 8 mg) was 16.4 ng/mL. The “peak plasma drug concentration” value ([4]; single oral dose 12 mg) was 23.5 ng/mL.
